The results in this text go back to patent publication US20190062699A1, “HIGHLY FUNCTIONAL HEPATOCYTE AND USE THEREOF” (GAIA BioMedicine Inc., priority 2016, published 2019).

In this test the test system is iPS-HEP cells. Kind of test: ammonia metabolism test (Ammonia Test Wako) on iPS-derived hepatocytes. Type of test: cell-based, human. The conditions noted are these: compounds in differentiation induction medium III (FH1 final 50 μM, FPH1 final 20 μM); compared with use of feeder cells (HUVECs, MSCs); 2 mM ammonia, 24 hours. Here is the method: When HUVEC and MSC are used as feeder cells, perform co-culture as required as adhesion culture (refer to Non-patent document 1 cited below). • 2.11. Indicate the date, name of the cells, etc. on the culture plate, and carry out culture in an incubator at 37° C. and 5% CO2. • 2.12. Carry out an operation of removing the supernatant, and adding flesh medium III on every other day up to Day 17. • [Day 17: Completion of CiPS-Hep->ammonia metabolism test] • 1. Prepare HBM (cocktail)+aqueous ammonia (henceforth referred to as ammonia medium) in a volume of 1 ml/well×2.
• 2. Remove the culture supernatant, and wash the cell surfaces once with 1 ml of HBM, and once with ammonia HBM. • 3. […]
• 4. […] During the centrifugation, turn on the power sources of microplate reader and personal computer, and choose Tecan i-control. • 8. […] Remove a lid, set the plate on the microplate reader, and sway the plate (double click “Shaking”, choose “10 sec” and “Normal”, and click “Start”). • 11. […] Set the plate on the microplate reader, and sway the plate. • 13. […] Set the plate on the microplate reader, and sway the plate. • 15. […] Finely wipe the bottom of the plate, and set the plate on the microplate reader with adjusting the upper left corner. • 18. Measure absorbance (620 or 630 nm) (double click “Measure” of “Absorbance”, select the well for measurement at 620 nm in “Details”, and click “Start”).

Entries after “also recorded” stand apart in the source; their conditions may differ.

For the molecule `Cc1ccc(Cl)cc1N(CC(=O)Nc1c(F)cccc1F)S(C)(=O)=O` [FPH1, 2-N-(5-chloro-2-methylphenyl)(methylsulfonamido)-N-(2,6-difluorophenyl)acetamide], the ammonia-metabolizing function-enhancing effect result was “higher ammonia-metabolizing function-enhancing effect compared with use of feeder cells; also recorded: higher metabolism-enhancing effect compared with use of feeder cells”. For the molecule `CC(=O)Nc1ccc(Cc2ccc(NC(C)=O)cc2)cc1` [FH1, N,N′-(methylenebis)(4,1-phenylene)diacetamide], the ammonia-metabolizing function-enhancing effect result is reported as “higher ammonia-metabolizing function-enhancing effect compared with use of feeder cells; also recorded: higher metabolism-enhancing effect compared with use of feeder cells”.
